Read-outs that look alike come from different tables or passages of the source. Ends that are not written are not given here.
What was measured:
[1] = type: in vivo, NIH/Swiss mice; settings: 80 nmol/Kg; AUC240
Procedure: Gavage (1.5g/kg) was given at t=0. Sample was taken at t=30 min.

[2] = cited from earlier work; for EC(50): inhibition of gastric emptying, subcutaneous

Compound | Basal Glucose Lowering at 80 nmol/Kg [1] | EC(50) ([2]; conscious rats ~200g) | EC(50) ([2]; conscious rats) | also measured
CC[C@H](C)[C@H](NC(=O)[C@H](CO)NC(=O)[C@H](Cc1ccc(O)cc1)NC(=O)[C@H](CC(=O)O)NC(=O)[C@H](CO)NC(=O)[C@@H](NC(=O)[C@H](Cc1ccccc1)NC(=O)[C@@H](NC(=O)CNC(=O)[C@H](CCC(=O)O)NC(=O)[C@@H](C)NC(=O)[C@@H](N)Cc1ccc(O)cc1)[C@@H](C)O)[C@@H](C)CC)C(=O)N[C@@H](C)C(=O)N[C@@H](CCSC)C(=O)N[C@@H](CC(=O)O)C(=O)N[C@@H](CCCCN)C(=O)N[C@H](C(=O)N[C@@H](Cc1c[nH]cn1)C(=O)N[C@@H](CCC(N)=O)C(=O)N[C@@H](CCC(N)=O)C(=O)N[C@@H](CC(=O)O)C(=O)N[C@@H](Cc1ccccc1)C(=O)N[C@H](C(=O)N[C@@H](CCC(N)=O)C(=O)N[C@@H](Cc1c[nH]c2ccccc12)C(=O)N[C@@H](CC(C)C)C(=O)N[C@@H](CC(C)C)C(=O)N[C@@H](C)C(=O)N[C@@H](CCC(N)=O)C(=O)N[C@@H](CCCCN)C(=O)N1CCC[C@H]1C(=O)N[C@@H](CO)C(=O)N[C@@H](CO)C(=O)NCC(=O)N[C@@H](C)C(=O)N1CCC[C@H]1C(=O)N1CCC[C@H]1C(=O)N1CCC[C@H]1C(=O)N[C@@H](CO)C(N)=O)C(C)C)[C@@H](C)CC [0601 GIP48 46] | -6%, AUC2 40 | – | – | –
CC[C@H](C)[C@H](NC(=O)[C@H](CO)NC(=O)[C@H](Cc1ccc(O)cc1)NC(=O)[C@H](CC(=O)O)NC(=O)[C@H](CO)NC(=O)[C@@H](NC(=O)[C@H](Cc1ccccc1)NC(=O)[C@@H](NC(=O)CNC(=O)[C@H](CCC(=O)O)NC(=O)[C@@H](C)NC(=O)[C@@H](N)Cc1ccc(O)cc1)[C@@H](C)O)[C@@H](C)CC)C(=O)N[C@@H](C)C(=O)N[C@@H](CCSC)C(=O)N[C@@H](CC(=O)O)C(=O)N[C@@H](CCCCN)C(=O)N[C@H](C(=O)N[C@@H](Cc1c[nH]cn1)C(=O)N[C@@H](CCC(N)=O)C(=O)N[C@@H](CCC(N)=O)C(=O)N[C@@H](CC(=O)O)C(=O)N[C@@H](Cc1ccccc1)C(=O)N[C@H](C(=O)N[C@@H](CC(N)=O)C(=O)N[C@@H](Cc1c[nH]c2ccccc12)C(=O)N[C@@H](CC(C)C)C(=O)N[C@@H](CC(C)C)C(=O)N[C@@H](C)C(=O)N[C@@H](CCC(N)=O)C(=O)N[C@@H](CCCCN)C(=O)N1CCC[C@H]1C(=O)N[C@@H](CO)C(=O)N[C@@H](CO)C(=O)NCC(=O)N[C@@H](C)C(=O)N1CCC[C@H]1C(=O)NCC(=O)N1CCC[C@H]1C(=O)N[C@@H](CO)C(N)=O)C(C)C)[C@@H](C)CC [0601 GIP49 52] | -1, AUC2 40% | – | – | –
CC[C@H](C)[C@H](NC(=O)[C@H](CO)NC(=O)[C@H](Cc1ccc(O)cc1)NC(=O)[C@H](CC(=O)O)NC(=O)[C@H](CO)NC(=O)[C@@H](NC(=O)[C@H](Cc1ccccc1)NC(=O)[C@@H](NC(=O)CNC(=O)[C@H](CCC(=O)O)NC(=O)[C@@H](C)NC(=O)[C@@H](N)Cc1ccc(O)cc1)[C@@H](C)O)[C@@H](C)CC)C(=O)N[C@@H](C)C(=O)N[C@@H](CC(C)C)C(=O)N[C@@H](CC(=O)O)C(=O)N[C@@H](CCCCN)C(=O)N[C@H](C(=O)N[C@@H](CCCNC(=N)N)C(=O)N[C@@H](CCC(N)=O)C(=O)N[C@@H](CCC(N)=O)C(=O)N[C@@H](CCC(=O)O)C(=O)N[C@@H](Cc1ccccc1)C(=O)N[C@H](C(=O)N[C@@H](CC(N)=O)C(=O)N[C@@H](Cc1c[nH]c2ccccc12)C(=O)N[C@@H](CC(C)C)C(=O)N[C@@H](CC(C)C)C(=O)N[C@@H](C)C(=O)N[C@@H](CCC(N)=O)C(=O)N[C@@H](CCCCN)C(=O)N1CCC[C@H]1C(=O)N[C@@H](CCCCN)C(=O)N[C@@H](CCCCN)C(=O)N[C@H](C(=O)N[C@@H](CCCNC(=N)N)C(=O)N[C@@H](Cc1ccc(O)cc1)C(=O)N[C@@H](CO)C(N)=O)[C@@H](C)CC)C(C)C)[C@@H](C)CC [0601GIP4539] | -5%, AUC240 | – | – | –
CC[C@H](C)[C@H](NC(=O)[C@H](CO)NC(=O)[C@H](Cc1ccc(O)cc1)NC(=O)[C@H](CC(=O)O)NC(=O)[C@H](CO)NC(=O)[C@@H](NC(=O)[C@H](Cc1ccccc1)NC(=O)[C@@H](NC(=O)CNC(=O)[C@H](CCC(=O)O)NC(=O)[C@@H](C)NC(=O)[C@@H](N)Cc1ccc(O)cc1)[C@@H](C)O)[C@@H](C)CC)C(=O)N[C@@H](C)C(=O)N[C@@H](CCSC)C(=O)N[C@@H](CC(=O)O)C(=O)N[C@@H](CCCCN)C(=O)N[C@H](C(=O)N[C@@H](Cc1c[nH]cn1)C(=O)N[C@@H](CCC(N)=O)C(=O)N[C@@H](CCC(N)=O)C(=O)N[C@@H](CC(=O)O)C(=O)N[C@@H](Cc1ccccc1)C(=O)N[C@H](C(=O)N[C@@H](CC(N)=O)C(=O)N[C@@H](Cc1c[nH]c2ccccc12)C(=O)N[C@@H](CC(C)C)C(=O)N[C@@H](CC(C)C)C(=O)N[C@@H](C)C(=O)N[C@@H](CCC(N)=O)C(=O)N[C@@H](CCCCN)C(=O)NCCC(=O)NCCC(=O)N1CCC[C@H]1C(=O)N[C@@H](CCCCN)C(=O)N[C@@H](CCCCN)C(=O)N[C@H](C(=O)N[C@@H](CCCNC(=N)N)C(=O)N[C@@H](Cc1ccc(O)cc1)C(=O)N[C@@H](CO)C(N)=O)[C@@H](C)CC)C(C)C)[C@@H](C)CC [0601GIP4648] | -8%, AUC240 | – | – | –
CC[C@H](C)[C@H](NC(=O)[C@H](CO)NC(=O)[C@H](Cc1ccc(O)cc1)NC(=O)[C@H](CC(=O)O)NC(=O)[C@H](CO)NC(=O)[C@@H](NC(=O)[C@H](Cc1ccccc1)NC(=O)[C@@H](NC(=O)CNC(=O)[C@H](CCC(=O)O)NC(=O)[C@@H](C)NC(=O)[C@@H](N)Cc1ccc(O)cc1)[C@@H](C)O)[C@@H](C)CC)C(=O)N[C@@H](C)C(=O)N[C@@H](CCSC)C(=O)N[C@@H](CC(=O)O)C(=O)N[C@@H](CCCCN)C(=O)N[C@H](C(=O)N[C@@H](Cc1c[nH]cn1)C(=O)N[C@@H](CCC(N)=O)C(=O)N[C@@H](CCC(N)=O)C(=O)N[C@@H](CC(=O)O)C(=O)N[C@@H](Cc1ccccc1)C(=O)N[C@H](C(=O)N[C@@H](CC(N)=O)C(=O)N[C@@H](Cc1c[nH]c2ccccc12)C(=O)N[C@@H](CC(C)C)C(=O)N[C@@H](CC(C)C)C(=O)N[C@@H](C)C(=O)N[C@@H](CCC(N)=O)C(=O)N[C@@H](CCCCN)C(=O)N1CCC[C@H]1C(=O)N[C@@H](CCCCN)C(=O)NCC(=O)N[C@@H](CCCCN)C(=O)NCC(=O)N[C@@H](CCCCN)C(=O)N[C@@H](CO)C(N)=O)C(C)C)[C@@H](C)CC [0601GIP4700] | -6%, AUC240 | – | – | –
CC[C@H](C)[C@H](NC(=O)[C@H](CO)NC(=O)[C@H](Cc1ccc(O)cc1)NC(=O)[C@H](CC(=O)O)NC(=O)[C@H](CO)NC(=O)[C@@H](NC(=O)[C@H](Cc1ccccc1)NC(=O)[C@@H](NC(=O)CNC(=O)[C@H](CCC(=O)O)NC(=O)[C@@H](C)NC(=O)[C@@H](N)Cc1ccc(O)cc1)[C@@H](C)O)[C@@H](C)CC)C(=O)N[C@@H](C)C(=O)N[C@@H](CCSC)C(=O)N[C@@H](CC(=O)O)C(=O)N[C@@H](CCCCN)C(=O)N[C@H](C(=O)N[C@@H](Cc1c[nH]cn1)C(=O)N[C@@H](CCC(N)=O)C(=O)N[C@@H](CCC(N)=O)C(=O)N[C@@H](CC(=O)O)C(=O)N[C@@H](Cc1ccccc1)C(=O)N[C@H](C(=O)N[C@@H](CC(N)=O)C(=O)N[C@@H](Cc1c[nH]c2ccccc12)C(=O)N[C@@H](CC(C)C)C(=O)N[C@@H](CC(C)C)C(=O)N[C@@H](C)C(=O)N[C@@H](CCC(N)=O)C(=O)N[C@@H](CCCCN)C(=O)N1CCC[C@H]1C(=O)N[C@@H](CO)C(=O)N[C@@H](CCCCN)C(=O)N[C@@H](CCC(=O)O)C(=O)N[C@H](C(=O)N[C@H](C(=O)N[C@@H](CO)C(N)=O)[C@@H](C)CC)[C@@H](C)CC)C(C)C)[C@@H](C)CC [Compound 0601GIP4234] | -11%, AUC240 | – | – | –
CC[C@H](C)[C@H](NC(=O)[C@H](CO)NC(=O)[C@H](Cc1ccc(O)cc1)NC(=O)[C@H](CC(=O)O)NC(=O)[C@H](CO)NC(=O)[C@@H](NC(=O)[C@H](Cc1ccccc1)NC(=O)[C@@H](NC(=O)CNC(=O)[C@H](CCC(=O)O)NC(=O)[C@@H](C)NC(=O)[C@@H](N)Cc1ccc(O)cc1)[C@@H](C)O)[C@@H](C)CC)C(=O)N[C@@H](C)C(=O)N[C@@H](CCSC)C(=O)N[C@@H](CC(=O)O)C(=O)N[C@@H](CCCCN)C(=O)N[C@H](C(=O)N[C@@H](Cc1c[nH]cn1)C(=O)N[C@@H](CCC(N)=O)C(=O)N[C@@H](CCC(N)=O)C(=O)N[C@@H](CC(=O)O)C(=O)N[C@@H](Cc1ccccc1)C(=O)N[C@H](C(=O)N[C@@H](CC(N)=O)C(=O)N[C@@H](Cc1c[nH]c2ccccc12)C(=O)N[C@@H](CC(C)C)C(=O)N[C@@H](CC(C)C)C(=O)N[C@@H](C)C(=O)N[C@@H](CCC(N)=O)C(=O)N[C@@H](CCCCN)C(=O)N[C@H](C(=O)N[C@@H](CO)C(=O)N1CCC[C@H]1C(=O)N[C@@H](CCCNC(=N)N)C(=O)N1CCC[C@H]1C(=O)N1CCC[C@H]1C(=O)N[C@@H](CO)C(N)=O)[C@@H](C)O)C(C)C)[C@@H](C)CC [Compound 0601GIP4236] | -12%, | – | – | –
CSNLSTCVLGKLSQELHKLQTYPRTNTGSGTP [Salmon calcitonin] | – | 0.19 µg | 0.28 nmol/kg | –
Gastrin releasing peptide: peptide compared for inhibition of gastric emptying in conscious rats (VPLPAGGGTVLTKMYPRGNHWAVGHLM; ends and bridges not checked; UniProt P07492 24-50, looked up) | – | 28.5 µg | 49.9 nmol/kg | –
KCNTATCATQRLANFLVHSSNNFGAILSSTNVGSNTY [Human amylin] | – | 0.15 µg | 0.19 nmol/kg | –
PACAP38: pituitary adenylate cyclase activating peptide (HSDGIFTDSYSRYRKQMAVKKYLAAVLGKRYKQRVKNK-NH2; ends and bridges not checked; UniProt P18509 132-169, looked up) | – | – | – | inhibition of gastric emptying ([2]; at doses of 100µg): weakly active or inactive
Rat CGRP: peptide compared for inhibition of gastric emptying in conscious rats (SCNTATCVTHRLAGLLSRSGGVVKDNFVPTNVGSEAF; ends and bridges not checked; cysteine pairing not given here; UniProt P01256 83-119, looked up) | – | 1.62 µg | 2.13 nmol/kg | –
Rat calcitonin: peptide compared for inhibition of gastric emptying in conscious rats (CGNLSTCMLGTYTQDLNKFHTFPQTSIGVGAP; ends and bridges not checked; cysteine pairing not given here; UniProt P01257 85-116, looked up) | – | 0.64 µg | 0.94 nmol/kg | –

Reference: patent EP2057188B1 (priority 2006, dated 2008)
